Data from the OligoGym collection.
Values joined by “and” are separate entries in the source; they are usually repeats but may differ in a detail not shown here. Equal entries are not always repeated. After the bases stand the sugars from the 5' end (letter, count) and the backbone: PS all phosphorothioate, else s phosphorothioate and o phosphodiester by linkage. Methylation of C is not given here. k = constrained ethyl (cEt); d = 2'-deoxy (DNA)

target: MALAT1; conditions: ASO, A431, 0.005 µM

Sequence	target mRNA inhibition
CAGGCTATTACCTGAA (sugars k3 d10 k3, PS)	-14%
CAGGGTTATGCTTATT (sugars k3 d10 k3, PS)	75% and 66%
CAGTAACATCTGATTC (sugars k3 d10 k3, PS)	57% and 78%
CAGTACTGCATTTACT (sugars k3 d10 k3, PS)	20%
CAGTAGGGCTTCTCAA (sugars k3 d10 k3, PS)	10%
CAGTAGTAAGAATCTC (sugars k3 d10 k3, PS)	54%
CATAACTGATCTGACT (sugars k3 d10 k3, PS)	-5%
CATATTGCCGACCTCA (sugars k3 d10 k3, PS)	43%
CATGAGTATAAGCCTG (sugars k3 d10 k3, PS)	50%
CATGAGTTTATCTGCA (sugars k3 d10 k3, PS)	-6%
CATGTGCCTGGAATTA (sugars k3 d10 k3, PS)	26%
CATTAAGTTGGTAATT (sugars k3 d10 k3, PS)	12%
CATTTATTTCGGCTTC (sugars k3 d10 k3, PS)	66% and 90%
CATTTGGCCTACTCAA (sugars k3 d10 k3, PS)	34%
CCAAACAACTTTTGCA (sugars k3 d10 k3, PS)	44%
CCAACCACTCGCTTTC (sugars k3 d10 k3, PS)	26%
CCAACTAATTGCCAAT (sugars k3 d10 k3, PS)	40%
CCAACTTGGAAGTTGA (sugars k3 d10 k3, PS)	31%
CCAAGCTACTGGCTGC (sugars k3 d10 k3, PS)	23%
CCAATATTTGCCCCTC (sugars k3 d10 k3, PS)	40%
CCACCAAAGACCTCGA (sugars k3 d10 k3, PS)	27%
CCACGCCAACACAGTT (sugars k3 d10 k3, PS)	31%
CCACTCGCTTTCCCTG (sugars k3 d10 k3, PS)	41%

Sequence	target mRNA inhibition
CCACTCTAAGATTGTA (sugars k3 d10 k3, PS)	40%
CCAGCCTATAAGGACA (sugars k3 d10 k3, PS)	-1%
CCAGGAGTGCCAACCA (sugars k3 d10 k3, PS)	5%
CCAGGCTGGTTATGAC (sugars k3 d10 k3, PS)	44%
CCATTACGCAACTGAG (sugars k3 d10 k3, PS)	12%
CCCAAAAGCCCTCTCA (sugars k3 d10 k3, PS)	12%
CCCAAATTAATGCACT (sugars k3 d10 k3, PS)	51% and 42%
CCCACCAAAGACCTCG (sugars k3 d10 k3, PS)	31%
CCCACCCTCTAAGAGA (sugars k3 d10 k3, PS)	-4%
CCCAGTTTGTCAATAG (sugars k3 d10 k3, PS)	39%
CCCATAATTGTAGTTA (sugars k3 d10 k3, PS)	45%
CCCCAACTGCTTGCAG (sugars k3 d10 k3, PS)	13%
CCCCAATCAAGATTTT (sugars k3 d10 k3, PS)	-21%
CCCCACGGCCCGCACG (sugars k3 d10 k3, PS)	-9%
CCCCAGTCCTTTACAG (sugars k3 d10 k3, PS)	9%
CCCCATATAAATCCCT (sugars k3 d10 k3, PS)	-7%
CCCCCATTATATTAGA (sugars k3 d10 k3, PS)	28%
CCCCCCCAAGATTGCC (sugars k3 d10 k3, PS)	-16%
CCCCCCGCCTCAGTTA (sugars k3 d10 k3, PS)	-7%
CCCCCGCCTCAGTTAC (sugars k3 d10 k3, PS)	28%
CCCGCCTGAGCCCCGG (sugars k3 d10 k3, PS)	-2%
CCCGGAAATCGGCCTA (sugars k3 d10 k3, PS)	0%
CCCTATATAAGGTCAA (sugars k3 d10 k3, PS)	13%

Sequence	target mRNA inhibition
CCCTCCCCTTTAATAA (sugars k3 d10 k3, PS)	-17%
CCGCCTCTTAAAGCAC (sugars k3 d10 k3, PS)	-9%
CCGCCTGAGCCCCGGG (sugars k3 d10 k3, PS)	-9%
CCGCTAAGATGCTAGC (sugars k3 d10 k3, PS)	20%
CCGGAAATCGGCCTAC (sugars k3 d10 k3, PS)	20%
CCGTTTTTCAGCTTCC (sugars k3 d10 k3, PS)	6%
CCTAGCTTCCTTCACC (sugars k3 d10 k3, PS)	17%
CCTCTAAGAGACATTC (sugars k3 d10 k3, PS)	29%
CCTGAAAAAGTCTTAG (sugars k3 d10 k3, PS)	28%
CCTGGGTCAGCTGTCA (sugars k3 d10 k3, PS)	51%
CCTGTTAAGACCATCC (sugars k3 d10 k3, PS)	40%
CCTTAAAGTTACATTC (sugars k3 d10 k3, PS)	33%
CCTTAGGATAATAGCG (sugars k3 d10 k3, PS)	60% and 51%
CCTTCCCTATATAAGG (sugars k3 d10 k3, PS)	-41%
CCTTCTATTGGTATTA (sugars k3 d10 k3, PS)	28%
CCTTGAAACCGATTAT (sugars k3 d10 k3, PS)	36%
CGAACTGCTGCTTGCT (sugars k3 d10 k3, PS)	40%
CGAAGAGATACCTGTC (sugars k3 d10 k3, PS)	23%
CGCACGGAAATTTTTC (sugars k3 d10 k3, PS)	-17%
CGCCAGCCCCCCACGG (sugars k3 d10 k3, PS)	-45%
CGCCGCAGGGATTTGA (sugars k3 d10 k3, PS)	19%
CGCTTTGTTGTCTCTC (sugars k3 d10 k3, PS)	87% and 99%
CGCTTTTATTCTGCTT (sugars k3 d10 k3, PS)	6%

Sequence	target mRNA inhibition
CGGAAATCGGCCTACG (sugars k3 d10 k3, PS)	30%
CGGATTTTTACCAACC (sugars k3 d10 k3, PS)	38%
CGGCCCGCACGGAAAT (sugars k3 d10 k3, PS)	24%
CGTAACAGGCCACTGC (sugars k3 d10 k3, PS)	2%
CGTGAAAACCCACTCT (sugars k3 d10 k3, PS)	-6%
CGTGAGAACTGCTCTA (sugars k3 d10 k3, PS)	37%
CGTGTGGAAAGATTTG (sugars k3 d10 k3, PS)	0%
CGTTACGAAAGTCCTT (sugars k3 d10 k3, PS)	25%
CTAAATACCACCACCT (sugars k3 d10 k3, PS)	12%
CTAAGATAGCAGCACA (sugars k3 d10 k3, PS)	11%
CTAAGATTGTAAGCAT (sugars k3 d10 k3, PS)	28%
CTAAGCAATATCTTAG (sugars k3 d10 k3, PS)	15%
CTACACAATTTACATC (sugars k3 d10 k3, PS)	22%
CTACATTTACAAAACG (sugars k3 d10 k3, PS)	29%
CTACTGAAGAGCATTG (sugars k3 d10 k3, PS)	22%
CTACTTTAAGCCTTCG (sugars k3 d10 k3, PS)	31%
CTAGGGAAAAGTGGTT (sugars k3 d10 k3, PS)	-22%
CTATCTTCACCACGAA (sugars k3 d10 k3, PS)	40%
CTCAAAGTCCAATGCA (sugars k3 d10 k3, PS)	48%
CTCAGTACGAAACTCC (sugars k3 d10 k3, PS)	30%
CTCCAATACTTGTCTT (sugars k3 d10 k3, PS)	54% and 44%
CTCCAATGGACATCTC (sugars k3 d10 k3, PS)	29%
CTCCCCTTCAAGCACC (sugars k3 d10 k3, PS)	4%

Sequence	target mRNA inhibition
CTCGCATCACCGGAAT (sugars k3 d10 k3, PS)	-14%
CTCGCCTCCTCCGTGT (sugars k3 d10 k3, PS)	10%
CTCGCTTTCCCTGTGG (sugars k3 d10 k3, PS)	17%
CTCTAAGAGACATTCA (sugars k3 d10 k3, PS)	23%
CTCTATACTTTGAAGG (sugars k3 d10 k3, PS)	20%
CTCTCATTTATTTCGG (sugars k3 d10 k3, PS)	59% and 84%
CTCTGCAGTTTCTATA (sugars k3 d10 k3, PS)	31%
CTCTTGAGGGACAGTA (sugars k3 d10 k3, PS)	4%
CTGAACCGGAGCAGGA (sugars k3 d10 k3, PS)	-13%
CTGAACTATCACAATT (sugars k3 d10 k3, PS)	28%
CTGCAAGGTCTCATAC (sugars k3 d10 k3, PS)	24%
CTGCAGATGCAAGTTA (sugars k3 d10 k3, PS)	49%
CTGCAGTTTCTATAGT (sugars k3 d10 k3, PS)	22%
CTGCCAACTAATTGCC (sugars k3 d10 k3, PS)	-32%
CTGCCTCAATGCCTAC (sugars k3 d10 k3, PS)	44%
CTGCGACTTGCTCCCA (sugars k3 d10 k3, PS)	10%
CTGCGGTTTCCTCAAG (sugars k3 d10 k3, PS)	29%
CTGCTTACAGATTTGC (sugars k3 d10 k3, PS)	49%
CTGGAAGCTCCTTCTA (sugars k3 d10 k3, PS)	25%
CTGGCATGCTGGTCTA (sugars k3 d10 k3, PS)	19%
CTGTCTGAGGCAAACG (sugars k3 d10 k3, PS)	37%
CTGTTAAGACCATCCC (sugars k3 d10 k3, PS)	46%
